These are literature values, as cited in patent EP4659596A1 (Nicoventures Trading Limited, priority 2024, dated 2025).

For the data set the following is noted: partition coefficient between octanol and water; organic acids of Table 1.
Turning to `CC(C)[C@@H]1CC[C@@H](C)C[C@H]1OC(=O)CCC(=O)O` [monomenthyl succinate], the logP is 3.
With ethyl benzoic acid, the logP was 2.9.
On to isopropyl benzoic acid, for which the logP is 3.5.

As usually defined, the logP is a log measure of how a compound divides between an organic and an aqueous phase.
